Assay results published in paper PMC4506051, “Pharmacokinetic Profiles of Active Ingredients and Its Metabolites Derived from Rikkunshito, a Ghrelin Enhancer, in Healthy Japanese Volunteers: A Cross-Over, Randomized Study” (PLoS ONE, 2015).

How the values were obtained:
[1] = Randomized crossover quantitative trial: plasma pharmacokinetics of nine ingredients after rikkunshito 2.5, 5.0 or 7.5 g; conditions: for AUC(0-t) / Cmax / Tmax / half-life: human, plasma, po; for AUC(0-t): AUC0-last; for AUC(0-t) / Cmax / half-life / t 1/2: geometric mean (95% CI); for Cmax: C max; for Tmax: Median t max (range); for Tmax / Median t max (range): median (minimum–maximum)
Source text: The first trial was a nonrandomized, open-label, one-period design. The second trial was a randomized, open-label, three-arm, three-period design (Fig 1). With respect to inclusion criteria, the studies included healthy Japanese adults between 20 and 45 years of age with a body mass index between 18 and 25 who were willing and able to comply with the study requirements. Exclusion criteria for this study included a history of significant liver, heart, or vessel disease and consumption of supplements that contained any rikkunshito ingredients or any drug within 3 days to 1 week before the first dose. Other standard exclusion criteria included relevant allergies, pregnant or nursing females, and any alcohol or nicotine use. The sample size was set as more than 15 based on the Ministry of Health, Labour and Welfare’s guidelines. Subjects allocated to a screening test were randomized to one of three groups by the central allocation system (allocation ratio 1:1:1). A random sequence was generated using a computer. The safety endpoint was evaluated in all volunteers. This endpoint was defined on the basis of a physician’s judgement after examination or observation that a serious adverse event had occurred. Adverse events included death, a life-threatening event, an event requiring hospitalization for treatment or an extended stay in hospital, an event resulting in permanent or temporary disability or dysfunction, an event resulting in a congenital abnormality, or any other serious medical phenomenon. With respect to side effects, no specific conditions were defined, and all adverse events for which no causal relationship with the drug could be excluded were deemed to be side effects. In each stage during the 48-h period following rikkunshito administration, the physician monitored the patient for subjective symptoms, objective findings, swelling, body temperature (axillary), blood pressure (sitting), and pulse (sitting). The physician also conducted a hematological examination to measure the patient’s red blood cell, leucocyte and platelet counts, hemoglobin level, and hematocrit value. A biochemical examination was conducted to determine total protein, blood urea nitrogen, creatinine, uric acid, aspartate aminotransferase, alanine aminotransferase, total bilirubin, alkaline phosphatase, γ-glutamyltranspeptidase albumin, prothrombin time, total cholesterol, C-reactive protein, and potassium to identify any abnormalities in comparison with the subject’s condition prior to administration. All participants fasted for 12 h before administration and 4 h after administration of the study drug.
In the second quantitative trial, 12-mL blood samples were collected at 0 (preadministration), 0.25, 0.5, 1, 2, 3, 4, 6, 8, 10, 12, 24, and 48 h after a single oral administration of rikkunshito (Lot H05142). A total of 3 daily doses were used in this trial, i.e., the clinical dose per administration (2.5 g) as the lowest dose, the clinical daily dose (7.5 g) as the highest dose, and an intermediate dose (5.0 g), to broadly discuss the pharmacokinetic characteristics of the ingredients measured. The trial participants were hospitalized overnight on the day they ingested rikkunshito, and returned home the following day after blood samples were collected at the 24-h time point. The participants returned to the hospital to provide blood samples at 48 h. The blood was immediately centrifuged at 1700 ×g for 15 min to obtain plasma. Plasma fractions were stored at −20°C or lower until analysis.
Plasma, urine, and rikkunshito formulation samples were analyzed for rikkunshito ingredients concentrations using a liquid chromatography–mass spectrometry with tandem mass spectrometer assay (LC–MS/MS; API5000, Triple Quad 6500, or QTRAP5500; AB Sciex, Tokyo, Japan) or gas chromatography–mass spectrometry. Further information of analytical methods can be found at S1 Appendix.

GHS-R = target: T1, GHS-R (Homo sapiens, UniProt Q92847); test: Ghrelin/GHS-R binding activity, radioligand binding using GHS-R-expressing cells (S1 Fig); conditions: n = 3, S1 Fig
T1 construct: host or cells: GHS-R-expressing cells (printed 'GSH-R-expressing cells')
Experimental: Supplementary file pone.0133159.s004.tif: S1 Fig Effect of atractylodin and atractylodin carboxylic acid on ghrelin/GHS-R binding activity. Radioligand binding was performed using GSH-R-expressing cells (n = 3). (TIF) Click here for additional data file.

[2] = Dose proportionality (linearity) test by power model for C max and AUC0-last; conditions: for Dose proportionality test using power model, Inference: linear when 90% CI of β included 1, CIlower ≥0.8, and CIupper ≤1.25; for Dose proportionality test using power model, β: rikkunshito 2.5, 5.0 or 7.5 g
Experimental: The dose proportionality was analyzed via a power model [21, 22]. […] Evaluation of linearity of the dosage-exposure relationship was conducted with Phoenix WinNonlin and SAS 9.2 (SAS Institute, Inc., Cary, NC).

[3] = Exploratory trial: plasma concentration of rikkunshito ingredients after single oral rikkunshito 7.5 g; assay type: in vivo; conditions: 0–8 h; rikkunshito 7.5 g; untreated plasma; BQL = below the quantification limit
In short: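 Healthy volunteers took a single oral rikkunshito dose of 7.5 g. Heparinized forearm blood was drawn at 0, 0.5, 1, 2, 4 and 8 h, with urine pooled pre-dose, 0–4 h and 4–8 h. Analytes were quantified in plasma by LC–MS/MS with internal standards, after solid-phase extraction and, where applied, 2 h β-glucuronidase treatment at 37°C.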

[4] = Exploratory trial: ingredients in β-glucuronidase (enzyme)-treated plasma; assay type: in vivo, human; conditions: in vivo
Experimental: (§1) In the first exploratory trial, 20-mL blood samples were collected from the cutaneous vein in the subjects’ forearm via a blood sampling tube that contained heparin at 0 (preadministration), 0.5, 1, 2, 4, and 8 h after a single oral administration of rikkunshito (Lot E24652). The dose of rikkunshito used in this trial was 7.5 g/day, which is the clinical daily dose, to widely explore rikkunshito-derived ingredients that enter the blood. Along with plasma, urine samples were collected at three points: between dinner and bedtime (preadministration), between 0 and 4 h after administration, and between 4 and 8 h after administration. The blood was immediately centrifuged at 1700 ×g for 10 min to obtain plasma. Plasma and urine fractions were stored at −80°C or lower until analysis.
(§2) For quantification of 30 ingredients other than atractylodin and synephrine, 25 µL of standard solution or methanol was added to 500 µL plasma or urine samples followed by mixing. Atractylenolide III or digoxin (IS) solution (50 μL) was added to the solutions followed by mixing. For urine, 400 µL of blank plasma was added to the solutions. Ammonium acetate solution (100 mM, 100 or 400 µL) was added to the solutions followed by mixing. For enzymatic treatment, plasma and urine samples were incubated with β-glucuronidase (100 units in 100 mM ammonium acetate) for 2 h at 37°C. A solid-phase cartridge (OASIS HLB, 30 mg/1cc, Waters) was conditioned with methanol and 10 mM ammonium acetate solution, and the samples were loaded onto the cartridge. The cartridge was washed water : methanol (9:1, v/v), and 1.5 mL of methanol and 30 µL of propylene glycol were added to the cartridge to elute the analytes. The mixtures were dried at 25°C under a stream of nitrogen gas. Furthermore, 100 μL of 10 mM ammonium acetate : methanol (8:2, v/v) was added to the dried samples followed by mixing and sonication. The solutions were filtered (0.22 µm) and followed by injection into the LC–MS/MS system. […] Those analytical conditions are summarized in S2 Table and S3 Table.

[5] = Exploratory trial: amount of rikkunshito ingredients in urine; assay type: in vivo, human
In short: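 Subjects took single oral 7.5 g rikkunshito; urine collected pre-dose and 0–4 h and 4–8 h post-dose, stored at −80 °C or lower. Synephrine quantified by LC–MS/MS after plate cleanup with erythromycin IS; other ingredients after β-glucuronidase (2 h, 37 °C) and HLB solid-phase extraction.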

[6] = Exploratory trial: ingredients in β-glucuronidase (enzyme)-treated urine; assay type: in vivo, human; conditions: human, in vivo
Experimental: as §1, §2

[7] = Stability of ingredients in gastric pH solution (pH 1.2, 37°C); assay type: physicochemical
Experimental: Rikkunshito gradually dissolved in acidic solution (pH 1.2) at 37°C, and the concentration of atractylodin after adding 0.25, 0.5, 1, and 2 h was measured by gas chromatography–mass spectrometry.

ghrelin secretion = conditions: cited from earlier work
5-HT2BR = test system: 5-HT2BR; design: method as in PMID 18439428; conditions: cited from earlier work
5-HT2CR = test system: 5-HT2CR; design: method as in PMID 18439428; conditions: cited from earlier work
[8] = test system: cisplatin-induced anorexia model; conditions: cited from earlier work
[9] = of the ingredient in the formulation; summary table, reference not given; cited from earlier work
[10] = Formation of ingredients derived from rikkunshito in formulation, blood, and urine (S11 Table summary); conditions: after rikkunshito administration, per ingredient in the formulation
[11] = 2.5 g, rikkunshito 2.5 g single oral, n = 21
[12] = 5 g, rikkunshito 5.0 g single oral, n = 19
[13] = 7.5 g, rikkunshito 7.5 g single oral, n = 19
[14] = rikkunshito 7.5 g single oral, n = 19
[15] = rikkunshito 7.5 g single oral, n = 19, listed as atractylodin carboxylic acid
[16] = oral administration at a dose of 4.0 mg/kg

T1 sequence (Q92847 whole entry, species assumed): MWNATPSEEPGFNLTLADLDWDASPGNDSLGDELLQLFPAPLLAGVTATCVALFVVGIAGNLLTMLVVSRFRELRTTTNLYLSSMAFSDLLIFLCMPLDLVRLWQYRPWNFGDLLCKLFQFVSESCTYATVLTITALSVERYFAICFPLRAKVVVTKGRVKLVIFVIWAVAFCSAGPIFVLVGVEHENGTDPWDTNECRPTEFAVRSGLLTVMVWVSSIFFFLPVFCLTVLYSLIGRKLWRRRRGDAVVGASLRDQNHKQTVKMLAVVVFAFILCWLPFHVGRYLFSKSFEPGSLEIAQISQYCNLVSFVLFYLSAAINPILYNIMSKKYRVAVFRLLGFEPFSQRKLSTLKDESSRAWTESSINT

O=C(O)/C=C/C#CC#C/C=C/c1ccco1 [Atractylodin carboxylic acid]
C max of metabolite relative to unchanged form (atractylodin) ([1]; after administration of 7.5 g rikkunshito): 5.7–31.5 fold
AUC(0-t) [1, 11]: 3.91 ng·h/mL
Cmax [1, 11]: 4.45 ng/mL
Tmax [1, 11]: 15 min
half-life ([1]; 2.5 g, t 1/2, rikkunshito 2.5 g single oral, n = 21): 34.8 min
AUC(0-t) [1, 12]: 8.74 ng·h/mL
Cmax [1, 12]: 9.57 ng/mL
Tmax [1, 12]: 15 min
half-life ([1]; 5 g, t 1/2, rikkunshito 5.0 g single oral, n = 19): 38.2 min
AUC(0-t) [1, 13]: 12.7 ng·h/mL
Cmax [1, 13]: 14.3 ng/mL
t 1/2 [1, 14]: 0.663 (0.560–0.790) h
t 1/2 [1, 15]: < 10 h
Median t max (range) [1, 14]: 0.250 (0.250–0.500) h
Median t max (range) [1, 15]: ≤ 1 h
Ghrelin/GHS-R binding (ghrelin signal enhancement) activity compared with atractylodin (GHS-R): as potent as atractylodin
Dose proportionality test using power model, Inference ([2]; AUC0-last): Linear
Dose proportionality test using power model, β ([2]; AUC0-last): 1.08
Dose proportionality test using power model, Inference ([2]; Cmax): Linear
Dose proportionality test using power model, β ([2]; Cmax): 1.05

COc1ccc([C@@H]2CC(=O)c3c(O)cc(O)cc3O2)cc1O [Hesperetin]
Plasma concentration at all time points [3]: BQL
Cmax ([4]; human): 0.799 ng/mL
concentration at 2 h ([4]; human): 0.227 ± 0.264 ng/mL
concentration at 4 h ([4]; human): 0.799 ± 0.408 ng/mL
concentration at 8 h ([4]; human): 0.307 ± 0.289 ng/mL
Plasma concentration in enzyme-treated plasma, 0 h [4]: BQL
Plasma concentration in enzyme-treated plasma, 0.5 h [4]: BQL
Plasma concentration in enzyme-treated plasma, 1 h [4]: BQL
Amount in urine, Pre ([5]; human, in vivo): 213 ± 390 ng
Amount in urine, 0–4 h ([5]; human, in vivo, po): 462 ± 418 ng
Amount in enzyme-treated urine, 0–4 h [6]: 7130 ± 9290 ng
Amount in enzyme-treated urine, 4–8 h [6]: 56750 ± 37530 ng
Amount in enzyme-treated urine, Pre [6]: 4290 ± 7690 ng
Increase of urine concentration after β-glucuronidase treatment compared with before treatment [6]: more than 10 fold
Stability in gastric pH solution, Quantitative value ([7]; 0.5 h, pH 1.2): 4.38 ng/mL
Stability in gastric pH solution, Quantitative value ([7]; 1 h, pH 1.2): 4.36 ng/mL
Stability in gastric pH solution, Quantitative value ([7]; 2 h, pH 1.2): 3.90 ng/mL
Known pharmacology activities: ghrelin secretion (ghrelin secretion): Ghrelin secretion promoting activity [14, 15]
5-HT2BR inhibitory/antagonistic activity (5-HT2BR): inhibit
5-HT2CR inhibitory activity (5-HT2CR): inhibit

COc1ccc([C@@H]2CC(=O)c3c(O)cc(O[C@@H]4O[C@H](CO[C@@H]5O[C@@H](C)[C@H](O)[C@@H](O)[C@H]5O)[C@@H](O)[C@H](O)[C@H]4O)cc3O2)cc1O [Hesperidin]
Amount in urine, 0–4 h ([5]; 0–4 h after single oral rikkunshito 7.5 g, mean ± S.D., n = 4): 184 ± 60.5 ng
Amount in urine, 4–8 h ([5]; 4–8 h after single oral rikkunshito 7.5 g, mean ± S.D., n = 4): 68.6 ± 47.9 ng
Amount in urine, Pre ([5]; preadministration (between dinner and bedtime), mean ± S.D., n = 4): 28.9 ± 57.8 ng
Stability in gastric pH solution, Quantitative value ([7]; rikkunshito in acidic solution (pH 1.2) at 37°C, 0.5 h): 2860 ng/mL
Stability in gastric pH solution, Quantitative value ([7]; rikkunshito in acidic solution (pH 1.2) at 37°C, 1 h): 3130 ng/mL
Stability in gastric pH solution, Quantitative value ([7]; rikkunshito in acidic solution (pH 1.2) at 37°C, 2 h): 2570 ng/mL
Appetite following cisplatin administration [8, 16]: improves decreased appetite
Plasma ghrelin concentration following cisplatin administration [8, 16]: inhibits a decrease in plasma ghrelin concentration
Acylated ghrelin level in blood ([8]; oral administration, cisplatin-induced anorexia model): suppressed the decrease of the acylated ghrelin level in blood in a concentration-dependent manner
Metabolite by enterobacterium [9]: Hesperetin
Formation of ingredients: form found in Blood [10]: Conjugate metabolites of hesperetin
Formation of ingredients: form found in Urine ([10]; BQL = below the quantification limit): Hesperidin Hesperetin Conjugate metabolites of hesperetin
